Results on 27 compounds are retold here after patent US4442115A, “2'Hydroxy tetrazole-5-carboxanilides and anti-allergic use thereof” (May & Baker Limited, priority 1977, dated 1984).

Common to all, as to assay type: in vivo
For series [1], the system named is passive cutaneous anaphylactic (PCA) reaction. As to the kind of experiment: suppression of passive cutaneous anaphylactic (PCA) reaction, oral administration. Particulars: Rattus norvegicus, rats, p.o., thirty minutes before intravenous injection of allergen, read-out: ED 50 (p.o.): oral dose which produces 50% inhibition of the PCA reaction. The text has this: (§1) In pharmacological tests the new compounds suppress the passive cutaneous anaphylactic (PCA) reaction resulting from combination of tissue-fixed reaginic antibodies with the appropriate antigenic material (termed reagin-allergen combination) and carried out in an essentially similar manner to that described by Ogilvie [Nature (Lond.), (1964), 204, 91-92; Immunology, (1967), 12, 112-131]. In the method used to test these compounds sera were obtained from rats which had been infected with larvae of the nematode parasite Nippostrongylus brasiliensis; as a result of the parasitic infestation reaginic antibodies are elaborated in the host mammal and are found in sera removed from such animals. Other, non-infected, rats received intradermal injections of appropriate dilutions of such sera and were then given the allergenic material along with Evans' blue dye intravenously forty-eight hours later.
(§2) The allergenic material consisted of supernatant fluid after centrifugation of homogenates of adult Nippostrongylus brasiliensis worms which had been macerated in Tyrode's solution. The sites of PCA reactions were visualised by the effusion of Evans' blue dye from the circulation into those areas as a result of increased capillary permeability caused by the release of biologically-active substances from cells where reagin-allergen combination had occurred. The new compounds when given intravenously to the rats just before injection of allergen, or administered orally thirty minutes before intravenous injection of allergen, were able to prevent the development of the PCA reaction, as shown below in Table I and Table II.

For series [2] the test system is unchanged. Put plainly: suppression of passive cutaneous anaphylactic (PCA) reaction, intravenous administration. The conditions noted are these: Rattus norvegicus, rats, i.v., just before injection of allergen, read-out: ED 100 (i.v.): intravenous dose which produces 100% inhibition of the PCA reaction.
Excerpt: as §1, §2

The next series can be described thus: oral toxicity in mice. The conditions noted are these: 1000 mg/kg animal body weight, observation period of 3 days.

`Cc1cc(NC(=O)c2nnn[nH]2)c(O)c(C(=O)C(C)C)c1` [G, 2'-hydroxy-3'-isobutyryl-5'-methyltetrazole-5-carboxanilide]: the ED50 in series [1] was determined as 3.2 mg/kg. Besides, in series [2], the ED100 was 0.02 mg/kg.

With `CCC(=O)c1cc(CC)cc(NC(=O)c2nnn[nH]2)c1O` [AA, 5'-ethyl-2'-hydroxy-3'-propionyltetrazole-5-carboxanilide], the ED50 in series [1] turned out to be 1.3 mg/kg. For the same compound, the ED100 in series [2] was 0.01 mg/kg.

Turning to `CCc1cccc(NC(=O)c2nnn[nH]2)c1O` [Compound C, 3'-ethyl-2'-hydroxytetrazole-5-carboxanilide], the ED50 in series [1] worked out at 0.7 mg/kg. Moreover, the ED100 in series [2] was determined as 0.1 mg/kg.

With `COc1cc(NC(=O)c2nnn[nH]2)c(O)c(C(C)=O)c1` [M, 3'-acetyl-2'-hydroxy-5'-methoxytetrazole-5-carboxanilide], in series [2], the ED100 stood at 0.01 mg/kg.

Take `CC(=O)c1cc(C#N)cc(NC(=O)c2nnn[nH]2)c1O` [H, 3'-acetyl-5'-cyano-2'-hydroxytetrazole-5-carboxanilide]: the ED50 in series [1] amounted to 0.4 mg/kg. Besides, the ED100 in series [2] came out at 0.01 mg/kg.

For `CC(=O)c1cc(Br)cc(NC(=O)c2nnn[nH]2)c1O` [L, 3'-acetyl-5'-bromo-2'-hydroxytetrazole-5-carboxanilide], the ED100 in series [2] is 0.05 mg/kg.

Regarding `CC(=O)c1cc(F)cc(NC(=O)c2nnn[nH]2)c1O` [K, 3'-acetyl-5'-fluoro-2'-hydroxytetrazole-5-carboxanilide], the ED100 in series [2] was 0.01 mg/kg.

For `COc1cccc(NC(=O)c2nnn[nH]2)c1O` [R, 2'-hydroxy-3'-methoxytetrazole-5-carboxanilide], the ED50 in series [1] turned out to be 2.9 mg/kg. Further, the ED100 in series [2] came out at 0.02 mg/kg.

For `COc1cc(C)cc(NC(=O)c2nnn[nH]2)c1O` [T, 2'-hydroxy-3'-methoxy-5'-methyltetrazole-5-carboxanilide], the ED50 in series [1] was 6.5 mg/kg. Besides, the ED100 in series [2] was 0.02 mg/kg.

For the compound `CCC(=O)c1cc(C)cc(NC(=O)c2nnn[nH]2)c1O` [BB, 2'-hydroxy-5'-methyl-3'-propionyltetrazole-5-carboxanilide], in series [1], the ED50 was 0.88 mg/kg. In addition, the ED100 in series [2] was 0.02 mg/kg.

As for `COC(=O)c1cc(C)cc(NC(=O)c2nnn[nH]2)c1O` [W, 2'-hydroxy-3'-methoxycarbonyl-5'-methyltetrazole-5-carboxanilide], the ED50 in series [1] came out at 5.6 mg/kg. For the same compound, the ED100 in series [2] worked out at 0.05 mg/kg.

With `CC(=O)c1cc(C)cc(NC(=O)c2nnn[nH]2)c1O` [Compound B, 3'-acetyl-2'-hydroxy-5'-methyltetrazole-5-carboxanilide], the ED50 in series [1] came to 0.06 mg/kg. For the same compound, in series [2], the ED100 worked out at 0.01 mg/kg. The “deaths during observation period” value in “oral toxicity in mice” is reported as “no deaths occurred”.

Regarding `CCc1cc(NC(=O)c2nnn[nH]2)c(O)c(C(C)=O)c1` [Compound D, 3'-acetyl-5'-ethyl-2'-hydroxytetrazole-5-carboxanilide], the ED50 in series [1] worked out at 0.19 mg/kg. In series [2], the ED100 turned out to be 0.01 mg/kg.

Consider `COc1cc(Br)cc(NC(=O)c2nnn[nH]2)c1O` [CC, 5'-bromo-2'-hydroxy-3'-methoxytetrazole-5-carboxanilide], for which the ED50 in series [1] is 16 mg/kg. For the same compound, the ED100 in series [2] stood at 0.05 mg/kg.

As for `Cc1cc(NC(=O)c2nnn[nH]2)c(O)c(C(=O)C2CC2)c1` [I, 3'-cyclopropylcarbonyl-2'-hydroxy-5'-methyltetrazole-5-carboxanilide], the ED100 in series [2] was determined as 0.02 mg/kg. Also, the “deaths during observation period” value in “oral toxicity in mice” is “no deaths occurred”.

Turning to `Cc1cc(NC(=O)c2nnn[nH]2)c(O)c(C(=O)N(C)C)c1` [V, 3'-(N,N-dimethylcarbamoyl)-2'-hydroxy-5'-methyltetrazole-5-carboxanilide], in series [2], the ED100 came out at 0.2 mg/kg.

On to `CC(=NO)c1cc(C)cc(NC(=O)c2nn[nH]n2)c1O` [Compound DD, 2'-hydroxy-3'-(1-hydroxyimino)ethyl-5'-methyltetrazole-5-carboxanilide], for which, in series [2], the ED100 turned out to be 0.002 mg/kg.

As for `CC(=O)c1cc([N+](=O)[O-])cc(NC(=O)c2nnn[nH]2)c1O` [E, 3'-acetyl-2'-hydroxy-5'-nitrotetrazole-5-carboxanilide], the ED50 in series [1] was 0.04 mg/kg. Besides, the ED100 in series [2] amounted to 0.02 mg/kg.

Regarding `O=C(Nc1ccccc1O)c1nnn[nH]1` [Compound A, 2'-hydroxytetrazole-5-carboxanilide], the ED50 in series [1] is 5.5 mg/kg. In series [2], the ED100 was found to be 0.2 mg/kg.

As to `CCCC(=O)c1cc(C)cc(NC(=O)c2nnn[nH]2)c1O` [U, 3'-butyryl-2'-hydroxy-5'-methyltetrazole-5-carboxanilide], in series [2], the ED100 worked out at 0.05 mg/kg.

In the case of `CC(=O)c1cc(N)cc(NC(=O)c2nnn[nH]2)c1O` [P, 3'-acetyl-5'-amino-2'-hydroxytetrazole-5-carboxanilide], the ED100 in series [2] came to 0.05 mg/kg.

Turning to `CCC(=O)c1cc(C#N)cc(NC(=O)c2nnn[nH]2)c1O` [N, 5'-cyano-2'-hydroxy-3'-propionyltetrazole-5-carboxanilide], the ED100 in series [2] was 0.02 mg/kg.

As for `CCc1cc(NC(=O)c2nnn[nH]2)c(O)c(OC)c1` [S, 5'-ethyl-2'-hydroxy-3'-methoxytetrazole-5-carboxanilide], in series [1], the ED50 is 1.8 mg/kg. Besides, the ED100 in series [2] is 0.01 mg/kg.

As to `CC(=O)c1cccc(NC(=O)c2nnn[nH]2)c1O` [Z, 3'-acetyl-2'-hydroxytetrazole-5-carboxanilide], in series [1], the ED50 was 0.06 mg/kg. Also, the ED100 in series [2] turned out to be 0.005 mg/kg.

With `CCCc1cc(NC(=O)c2nnn[nH]2)c(O)c(C(C)=O)c1` [Y, 3'-acetyl-2'-hydroxy-5'-propyltetrazole-5-carboxanilide], the ED50 in series [1] came out at 0.46 mg/kg. In series [2], the ED100 was found to be 0.01 mg/kg.

Regarding `CCOC(=O)c1cc(C)cc(NC(=O)c2nnn[nH]2)c1O` [X, 3'-ethoxycarbonyl-2'-hydroxy-5'-methyltetrazole-5-carboxanilide], the ED50 in series [1] was determined as 36 mg/kg. For the same compound, the ED100 in series [2] was determined as 0.01 mg/kg.

On to `CON=C(C)c1cc(C)cc(NC(=O)c2nn[nH]n2)c1O` [EE, 2'-hydroxy-3'-(1-methoxyimino)ethyl-5'-methyltetrazole-5-carboxanilide], for which the ED100 in series [2] turned out to be 0.02 mg/kg.
